Assay results taken from patent publication US20230381129A1, “PERMETRIN FOR USE IN THE TREATMENT OF DEMODEX SPP INFESTATION” (priority 2020, published 2023).
Structures can show the parent of a compound that is named as a salt.

Columns and labels:
Demodex mites = assay: In vitro survival study of Demodex mites on a glass slide without a coverslip; parameters: species or system Demodex spp.
Experimental: At least ten eyelashes from the upper and lower eyelids of both eyes were randomly collected from all subjects from the subsequent groups. The collected material was assessed in a UB-203i light microscope with a five-point revolver bowl and a vision track with a magnification of 4×, 10×, 20×, 40× and 100×, archiving the results with a digital camera type Toupcam TP 601300A from Touptek Photonics installed in the device.
In the case of the presence of Demodex mites, several dozen different chemical compounds in various concentrations with a potential demodicidal effect were used on the glass slide without the use of a coverslip. […] The in vitro test results for permethrin and fluralaner were archived using a Toupcam TP 601300A digital camera from Touptek Photonics mounted on the device.

Demodex spp. infestation = assay: Topical use of shampoo or shower gel in a person with inflammation and redness; type: in vivo, humans; details: shampoo or shower gel containing 0.75% active, 3 times a week for 2 months, human
Source text: A shampoo or shower gel containing 0.75% permethrin is used 3 times a week for a period of 2 months.
Shampoo or shower gel containing 0.75% fluralaner is used 3 times a week for a period of 2 months.
A shampoo or shower gel containing 0.5% fluralaner and 0.5% permethrin is used 3 times a week for a period of 2 months.

NC(N)=O [Urea]
Time of Survival of Demodex mites (Demodex mites; concentration 20%): more than 15 minutes

Gentamicin
Time of Survival of Demodex mites (Demodex mites; concentration 0.30%): more than 15 minutes

Cc1cc(C2=NOC(c3cc(Cl)cc(Cl)c3)(C(F)(F)F)C2)ccc1C(=O)NCC(=O)NCC(F)(F)F (stereo not drawn) [Fluralaner, 4-[(5R5)-5-(3,5-dichlorophenyl)-4,5-dihydro-5-(trifluoromethyl)-1,2-oxazol-3-yl]-N-[2-oxo-2-(2,2,2-trifluoroethylamino)ethyl]-o-toluamide]
Eyelid margin inflammation and eye symptoms (burning, itching, dry eyes, scales and deposits) after treatment (Demodex spp. infestation): reduction in inflammation of the eyelid margins | Skin inflammation symptoms and redness after treatment (Demodex spp. infestation): visible improvement | Time of Survival of Demodex mites (Demodex mites; concentration 10%): 6 min

O=C(OCc1ccccc1)c1ccccc1 [Novosscabin (benzyl benzoate), benzyl benzoate]
Time of Survival of Demodex mites (Demodex mites; concentration 30%): more than 15 minutes

N=C(NCCCCCCNC(=N)NC(=N)Nc1ccc(Cl)cc1)NC(=N)Nc1ccc(Cl)cc1.O=C(O)[C@H](O)[C@@H](O)[C@H](O)[C@H](O)CO.O=C(O)[C@H](O)[C@@H](O)[C@H](O)[C@H](O)CO [Manusan (chlorhexidine digluconate), chlorhexidine digluconate]
Time of Survival of Demodex mites (Demodex mites; concentration 4%): more than 15 minutes

CN1[C@@H]2CC[C@H]1CC(OC(=O)C(CO)c1ccccc1)C2.CN1[C@@H]2CC[C@H]1CC(OC(=O)C(CO)c1ccccc1)C2.O=S(=O)(O)O (stereo partly drawn) [Atropinum sulfuricum]
Time of Survival of Demodex mites (Demodex mites; concentration 1%): more than 15 minutes

NCC[C@H](O)C(=O)N[C@@H]1C[C@H](N)[C@@H](O[C@H]2O[C@H](CN)[C@@H](O)[C@H](O)[C@H]2O)[C@H](O)[C@H]1O[C@H]1O[C@H](CO)[C@@H](O)[C@H](N)[C@H]1O [Amikacin]
Time of Survival of Demodex mites (Demodex mites; concentration 0.30%): more than 15 minutes

C[C@H]1COc2c(N3CCN(C)CC3)c(F)cc3c(=O)c(C(=O)O)cn1c23 [Levofloxacin]
Time of Survival of Demodex mites (Demodex mites; concentration 0.50%): more than 15 minutes

CC[C@@H]1C(=O)OC[C@@H]1Cc1cncn1C.Cl [Pilocarpinum hydrochloridum]
Time of Survival of Demodex mites (Demodex mites; concentration 2%): more than 15 minutes

OO [Hydrogen peroxide (hydrogen peroxide), Hydrogen peroxide]
Time of Survival of Demodex mites (Demodex mites; concentration 3%): more than 15 minutes

CN(C)CCOC(=O)C(c1ccccc1)C1(O)CCCC1 (stereo not drawn) [Cyclopentolat]
Time of Survival of Demodex mites (Demodex mites; concentration 1%): more than 15 minutes

NC[C@H]1O[C@H](O[C@H]2[C@H](O)[C@@H](O[C@H]3O[C@H](CO)[C@@H](O)[C@H](N)[C@H]3O)[C@H](N)C[C@@H]2N)[C@H](N)C[C@@H]1O [Tobramycin]
Time of Survival of Demodex mites (Demodex mites; concentration 0.30%): more than 15 minutes

CC1(C)C(C=C(Cl)Cl)C1C(=O)OCc1cccc(Oc2ccccc2)c1 (stereo not drawn) [Permethrin]
Eyelid margin inflammation and eye symptoms (burning, itching, dry eyes, scales and deposits) after treatment (Demodex spp. infestation): reduction in inflammation of the eyelid margins | Skin inflammation symptoms and redness after treatment (Demodex spp. infestation): visible improvement | Time of Survival of Demodex mites (Demodex mites; concentration 10%): 5 min

CNC[C@H](O)c1cccc(O)c1.Cl [Phenylephrini hydrochloridum]
Time of Survival of Demodex mites (Demodex mites; concentration 10%): more than 15 minutes

CN(C)C(=O)Oc1cccc([N+](C)(C)C)c1 [Polstigmine (neostigmine methyl sulfate), neostigmine methyl sulfate]
Time of Survival of Demodex mites (Demodex mites; concentration 0.05%): more than 15 minutes

CCO [Ethanol]
Time of Survival of Demodex mites (Demodex mites; concentration 98%): more than 15 minutes

O=C(O)c1cn(C2CC2)c2cc(N3CCNCC3)c(F)cc2c1=O [Ciprofloxacin]
Time of Survival of Demodex mites (Demodex mites; concentration 0.30%): more than 15 minutes

CC=CC(=O)N(CC)c1ccccc1C [Crotamiton]
Time of Survival of Demodex mites (Demodex mites; concentration 10%): more than 15 minutes

CC1COc2c(N3CCN(C)CC3)c(F)cc3c(=O)c(C(=O)O)cn1c23 (stereo not drawn) [Ofloxacin]
Time of Survival of Demodex mites (Demodex mites; concentration 0.30%): more than 15 minutes

Ivermectin
Time of Survival of Demodex mites (Demodex mites; concentration 1%): more than 15 minutes
